How the values were obtained:
Type in all cases: cell-based
hNPY2R [1] = molecular target: T1, hNPY2R (Homo sapiens, UniProt P49146); assay: cAMP Agonist Assay, HEK293/hNPY2R; set-up: expressed in transfected cells; host or cells: HEK293/hNPY2R (G418 selection)
T1 sequence (P49146 1-381): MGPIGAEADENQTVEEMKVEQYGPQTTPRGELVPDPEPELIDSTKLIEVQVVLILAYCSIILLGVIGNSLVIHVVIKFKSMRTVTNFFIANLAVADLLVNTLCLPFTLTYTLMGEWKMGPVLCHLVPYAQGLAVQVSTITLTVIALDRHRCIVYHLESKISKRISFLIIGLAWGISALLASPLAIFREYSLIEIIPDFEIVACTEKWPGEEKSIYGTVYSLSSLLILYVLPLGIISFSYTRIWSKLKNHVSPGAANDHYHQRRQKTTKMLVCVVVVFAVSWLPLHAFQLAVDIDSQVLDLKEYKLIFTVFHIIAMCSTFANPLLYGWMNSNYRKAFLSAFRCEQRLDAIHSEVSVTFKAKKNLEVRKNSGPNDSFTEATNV
Protocol: In this example, the following materials were used: 384-well plate; Tropix cAMP-Screen Kit; cAMP ELISA System (Applied Biosystems, cat. #T1505; CS 20000); Forskolin (Calbiochem cat. # 344270); cells: HEK293/hNPY2R; growth medium: Dulbecco's modified eagle medium (D-MEM, Gibco); 10% Fetal bovine serum (FBS, Gibco), heat-inactivated; 1% Penicillin/Streptomycin (Pen 10000 unit/mL: Strep […], Gibco); […] G418 (Geneticin, Gibco cat. # 11811-031); and plating medium: DMEM/F12 w/o phenol red (Gibco); 10% FBS (Gibco, cat. # 10082-147), heat-inactivated; 1% Penicillin/Streptomycin (Gibco, cat. # 15140-122); […] G418 (Geneticin, Gibco, cat. # 11811-031).
On the first day, medium was discarded, and the monolayer cells were washed with 10 mL PBS per flask (T225). After decanting with PBS, 5 mL VERSENE (Gibco, cat #1504006) was used to dislodge the cells (5 min @37 C). The flask was gently tapped and the cell suspension was pooled. Each flask was rinsed with 10 mL plating medium and centrifuged at 1000 rpm for 5 min. The suspension was pooled and counted. The suspension was resuspended in plating medium at a density of 2.0×10^5 cells/mL for HEK293/hNPY2R. 50 microliters of cells (HEK293/hNPY2R-10,000 cells/well) were transferred into the 384-well plate using Multi-drop dispenser. The plates were incubated at 37° C. overnight. On the second day, the cells were checked for 75-85% confluence. The media and reagents were allowed to come to room temperature. Before the dilutions were prepared, the stock solution of stimulating compound in dimethyl sulphoxide (DMSO, Sigma, cat #D2650) was allowed to warm up to 32 C for 5-10 min. The dilutions were prepared in DMEM/F12 with 0.5 mM 3-Isobutyl-1-methylxanthine (IBMX, Calbiochem, cat #410957) and 0.5 mg/mL BSA. The final DMSO concentration in the stimulation medium was 1.1% with Forskolin concentration of 5 μM. The cell medium was tapped off with a gentle inversion of the cell plate on a paper towel. 50 μL of stimulation medium was placed per well (each concentration done in four replicates). The plates were incubated at room temperature for 30 min, and the cells were checked under a microscope for toxicity. After 30 minutes of treatment, the stimulation media was discarded and […] of Assay Lysis Buffer (provided in the Tropix kit) was added. The plates were incubated for 45 min @ 37° C. 20 μL of the lysate was transferred from stimulation plates into the pre-coated antibody plates (384-well) from the Tropix kit. 10 μL of AP conjugate and 20 μL of anti-cAMP antibody was added. The plates were incubated at room temperature while shaking for 1 hour. The plates were then washed 5 times with Wash Buffer, 70 μL per well for each wash. The plates were tapped to dry. 30 μL/well of CSPD/Saphire-II RTU substrate/enhancer solution was added and incubated for 45 min @ RT (shake). Signal for 1 sec/well in a Luminometer. (VICTOR-V) was measured.

hNPY2R [2] = molecular target: T1, hNPY2R; assay: CaFlux Assay (FLIPR), Y2R; set-up: expressed in transfected cells; host or cells: HEK-293 stably transfected with G protein chimera Gαqi9
Protocol: HEK-293 cells were stably transfected with the G protein chimera Gαqi9 and the hygromycin-B resistance gene were further transfected with the human NPY2 receptor and G418 antibiotic selection. Following selection in both hygromycin-B and G418, individual clones were assayed for their response to PYY. The transfected cells were cultured in DMEM medium supplemented with 10% fetal bovine serum, 50 μg/mL hygromycin-B, 2 mM glutamine, 100 U/mL penicillin, 100 μg/mL streptomycin and 250 μg/mL G418. Cells are harvested with trypsin-EDTA and counted using ViaCount reagent. The cell suspension volume is adjusted to 4.8×10^5 cells/mL with complete growth media. Aliquots of 25 μL are dispensed into 384 well Poly-D Lysine coated black/clear microplates (Falcon) and the microplates were placed in a 37° C. CO2 incubator overnight. Loading Buffer (Calcium-3 Assay Kit, Molecular Devices) was prepared by dissolving the contents of one vial (Express Kit) into […] Hank's Balanced Salt Solution containing 20 mM HEPES and 5 mM probenecid. Aliquots of 25 μL of diluted dye were dispensed into the cell plates and the plates are then incubated for 1 hour at 37° C. During the incubation, test compounds were prepared at 3.5× the desired concentration in HBSS (20 mM HEPES)/0.05% BSA/1% DMSO and transferred to a 384-well plate for use on FLIPR. After incubation, both the cell and compound plates were brought to the FLIPR and 20 μL of the diluted compounds were transferred to the cell plates by the FLIPR. During the assay, fluorescence readings were taken simultaneously from all 384 wells of the cell plate every 1.5 seconds. Five readings were taken to establish a stable baseline, and then 20 μL of sample was rapidly (30 μL/sec) and simultaneously added to each well of the cell plate. The fluorescence was continuously monitored before, during and after sample addition for a total elapsed time of 100 seconds. Responses (increase in peak fluorescence) in each well following addition were determined. The initial fluorescence reading from each well, prior to ligand stimulation, was used as a zero baseline value for the data from that well. The responses are expressed as % of maximal response of the positive control.

Y1R = molecular target: T2, Y1R (Homo sapiens, UniProt P25929); assay: CaFlux Assay (FLIPR), Y1R
T2 sequence (P25929 1-384): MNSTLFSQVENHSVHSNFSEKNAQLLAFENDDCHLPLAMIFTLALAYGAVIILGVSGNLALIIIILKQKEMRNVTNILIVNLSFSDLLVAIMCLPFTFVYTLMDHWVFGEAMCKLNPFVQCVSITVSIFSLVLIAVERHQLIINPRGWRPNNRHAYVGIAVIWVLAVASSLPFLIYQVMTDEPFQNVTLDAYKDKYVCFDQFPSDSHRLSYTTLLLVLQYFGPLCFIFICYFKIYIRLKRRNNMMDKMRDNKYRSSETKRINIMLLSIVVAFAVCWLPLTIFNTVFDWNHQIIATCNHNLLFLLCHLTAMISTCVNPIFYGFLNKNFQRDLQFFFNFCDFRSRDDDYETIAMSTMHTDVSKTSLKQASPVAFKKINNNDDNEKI

Y5R = molecular target: T3, Y5R (Homo sapiens, UniProt Q15761); assay: CaFlux Assay (FLIPR), Y5R
T3 sequence (Q15761 1-445): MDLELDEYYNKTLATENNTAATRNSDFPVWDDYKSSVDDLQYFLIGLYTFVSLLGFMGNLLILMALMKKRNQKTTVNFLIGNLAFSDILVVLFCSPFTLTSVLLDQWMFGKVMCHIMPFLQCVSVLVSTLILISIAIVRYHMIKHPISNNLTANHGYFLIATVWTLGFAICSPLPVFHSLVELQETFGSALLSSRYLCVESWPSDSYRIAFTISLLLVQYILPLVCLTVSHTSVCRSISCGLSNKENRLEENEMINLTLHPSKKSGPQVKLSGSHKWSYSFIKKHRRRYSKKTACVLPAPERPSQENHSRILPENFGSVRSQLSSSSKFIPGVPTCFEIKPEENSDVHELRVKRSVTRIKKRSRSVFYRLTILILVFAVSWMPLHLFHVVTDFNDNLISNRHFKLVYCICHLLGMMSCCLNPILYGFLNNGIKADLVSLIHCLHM

Y4R = Y4R (Homo sapiens, UniProt P50391); assay: CaFlux Assay (FLIPR), Y4R
Y4R, sequence (P50391 whole entry): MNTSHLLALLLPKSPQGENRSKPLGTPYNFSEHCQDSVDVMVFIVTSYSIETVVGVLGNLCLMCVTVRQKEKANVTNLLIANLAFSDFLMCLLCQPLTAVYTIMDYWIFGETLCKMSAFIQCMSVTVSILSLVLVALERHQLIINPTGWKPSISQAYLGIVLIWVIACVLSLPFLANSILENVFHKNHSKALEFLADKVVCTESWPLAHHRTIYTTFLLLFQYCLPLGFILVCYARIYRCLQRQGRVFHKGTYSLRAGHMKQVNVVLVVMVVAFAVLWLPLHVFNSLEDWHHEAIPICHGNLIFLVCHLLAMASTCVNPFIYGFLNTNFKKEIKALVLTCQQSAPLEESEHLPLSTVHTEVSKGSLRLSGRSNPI

Compound | EC50 (hNPY2R [1]) [nM] | EC50 (hNPY2R [2]) [nM] | EC50 (Y1R) [nM] | EC50 (Y5R) [nM] | EC50 (Y4R) [nM] | Y5R FLIPR agonist character (partial agonist mark) (Y5R; FLIPR)
CCCCCCCCCCCCCCCC(=O)NCCCCCC(=O)NCCCC[C@H](NC(=O)[C@@H](NC(=O)COCCOCCOCCOCCOCCOC)[C@@H](C)CC)C(=O)N1CCN(c2ccc3ncn(CC(=O)N[C@@H](CCCNC(=N)N)C(=O)N[C@@H](Cc4c[nH]cn4)C(=O)N[C@@H](Cc4ccc(O)cc4)C(=O)N[C@@H](CC(C)C)C(=O)N[C@@H](CC(N)=O)C(=O)N[C@@H](Cc4c[nH]c5ccccc45)C(=O)N[C@H](C(=O)N[C@H](C(=O)N[C@@H](CCCNC(=N)N)C(=O)N[C@@H](CCC(N)=O)C(=O)N(C)[C@@H](CCCNC(=N)N)C(=O)N[C@@H](Cc4ccc(O)cc4)C(N)=O)[C@@H](C)O)C(C)C)c(=O)c3c2)CC1 [Example 7] | 0.16 | 0.044 | > 5000 | 1130 | > 5000 | –
CCCCCCCCCCCCCCCC(=O)NCCCCCC(=O)NCCCC[C@H](NC(=O)[C@@H](NC(=O)CCOCCOCCOCCOCCOCCOCCOCCOC)[C@@H](C)CC)C(=O)N1CCN(c2ccc3ncn(CC(=O)N[C@@H](CCCNC(=N)N)C(=O)N[C@@H](Cc4c[nH]cn4)C(=O)N[C@@H](Cc4ccc(O)cc4)C(=O)N[C@@H](CC(C)C)C(=O)N[C@@H](CC(N)=O)C(=O)N[C@@H](Cc4c[nH]c5ccccc45)C(=O)N[C@H](C(=O)N[C@H](C(=O)N[C@@H](CCCNC(=N)N)C(=O)N[C@@H](CCC(N)=O)C(=O)N(C)[C@@H](CCCNC(=N)N)C(=O)N[C@@H](Cc4ccc(O)cc4)C(N)=O)[C@@H](C)O)C(C)C)c(=O)c3c2)CC1 [Example 8] | 0.17 | 0.033 | > 5000 | 1760 | > 5000 | –
CCCCCCCCCCCCCCCC(=O)NCCCCCC(=O)NCCCC[C@H](NC(=O)[C@@H](NC(=O)CCOCCOCCOCCOCCOCCOCCOCCOCCOCCOCCOCCOC)[C@@H](C)CC)C(=O)N1CCN(c2ccc3ncn(CC(=O)N[C@@H](CCCNC(=N)N)C(=O)N[C@@H](Cc4c[nH]cn4)C(=O)N[C@@H](Cc4ccc(O)cc4)C(=O)N[C@@H](CC(C)C)C(=O)N[C@@H](CC(N)=O)C(=O)N[C@@H](Cc4c[nH]c5ccccc45)C(=O)N[C@H](C(=O)N[C@H](C(=O)N[C@@H](CCCNC(=N)N)C(=O)N[C@@H](CCC(N)=O)C(=O)N(C)[C@@H](CCCNC(=N)N)C(=O)N[C@@H](Cc4ccc(O)cc4)C(N)=O)[C@@H](C)O)C(C)C)c(=O)c3c2)CC1 [Example 9] | 0.08 | 0.025 | > 5000 | 1030 | > 5000 | –
CCCCCCCCCCCCCCCC(=O)NCCCCCC(=O)NCCCC[C@H](NC(=O)[C@@H](NC(=O)CCOCCOCCOCCOCCOCCOCCOCCOCCOCCOCCOCCOCCOCCOCCOCCOC)[C@@H](C)CC)C(=O)N1CCN(c2ccc3ncn(CC(=O)N[C@@H](CCCNC(=N)N)C(=O)N[C@@H](Cc4c[nH]cn4)C(=O)N[C@@H](Cc4ccc(O)cc4)C(=O)N[C@@H](CC(C)C)C(=O)N[C@@H](CC(N)=O)C(=O)N[C@@H](Cc4c[nH]c5ccccc45)C(=O)N[C@H](C(=O)N[C@H](C(=O)N[C@@H](CCCNC(=N)N)C(=O)N[C@@H](CCC(N)=O)C(=O)N(C)[C@@H](CCCNC(=N)N)C(=O)N[C@@H](Cc4ccc(O)cc4)C(N)=O)[C@@H](C)O)C(C)C)c(=O)c3c2)CC1 [Example 10] | 0.13 | 0.04 | > 5000 | 816 | > 5000 | –
CCCCCCCCCCCCCCCCCCCC(=O)N[C@@H](CCC(=O)N[C@@H](CCC(=O)NCCCC[C@H](NC(=O)[C@@H](NC(=O)CCOCCOCCOCCOCCOCCOCCOCCOCCOCCOCCOCCOC)[C@@H](C)CC)C(=O)N1CCN(c2ccc3ncn(CC(=O)N[C@@H](CCCNC(=N)N)C(=O)N[C@@H](Cc4c[nH]cn4)C(=O)N[C@@H](Cc4ccc(O)cc4)C(=O)N[C@@H](CC(C)C)C(=O)N[C@@H](CC(N)=O)C(=O)N[C@@H](Cc4c[nH]c5ccccc45)C(=O)N[C@H](C(=O)N[C@H](C(=O)N[C@@H](CCCNC(=N)N)C(=O)N[C@@H](CCC(N)=O)C(=O)N(C)[C@@H](CCCNC(=N)N)C(=O)N[C@@H](Cc4ccc(O)cc4)C(N)=O)[C@@H](C)O)C(C)C)c(=O)c3c2)CC1)C(=O)O)C(=O)O [Example 24] | – | – | – | – | – | P.A

Reference: US20110172147A1, “NEUROPEPTIDE-2 RECEPTOR (Y-2R) AGONISTS” (priority 2009, published 2011)
